“And” between values parts separate entries of the source, which are not always exact repeats. Equal entries are not always repeated.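 Assay format: 96-well plates, 48-hour exposure. GI50 = concentration required for 50% inhibition of growth. TGI denotes the concentration required for complete inhibition of growth.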
Experiments:
Experiment in all cases: NCI tumour cell line growth inhibition, 48 h
[1] = test system: A498 renal
[2] = test system: SNB-75 CNS
[3] = test system: RPMI-8226 leukemia
[4] = test system: A549 NSCLC
[5] = test system: COLO 205 colon
[6] = test system: HOP-62 NSCLC
[7] = test system: SF-295 CNS
[8] = test system: MALME-3M melanoma
[9] = test system: CAKI-1 renal
[10] = test system: DU-145 prostate

SMILES	TGI [1] [µM]	TGI [2] [µM]	TGI [3] [µM]	TGI [4] [µM]	TGI [5]	TGI [6] [µM]	TGI [7] [µM]	TGI [8] [µM]	TGI [9] [µM]	GI50 [1]	GI50 [2]	GI50 [3]	GI50 [4]	GI50 [10]	TGI [10] [µM]	GI50 [5]	GI50 [6]	GI50 [7]	GI50 [8] [µM]	GI50 [9] [µM]
CCC1c2cc3n(c(=O)c2COC1O)Cc1c-3nc2ccccc2c1Cl (stereo not drawn)	> 100	> 100	> 100	> 100	> 100 µM	> 100	> 100	> 100	> 100											
CN(C)CC1CCCCCCCCCCCCC(CN(C)C)C1=O (stereo not drawn)	33	24.6		29.6	27.6 µM	30.3	29.6	29.4	26.3											
COC(=O)[C@@H](C)C[C@H](Cc1ccccc1)NC(=O)c1csc([C@@H](C[C@H](C(C)C)N(C)C(=O)C2(NC(=O)[C@H]3CCCCN3C)CCC2)OC(C)=O)n1	0.0874	> 25	> 25	> 25	0.12 µM and 0.0182 µM	> 25	> 25	> 25		0.0164 µM and 0.00548 µM	0.00351 µM and 0.00319 µM	0.00259 µM and 0.0025 µM	0.0564 µM and 0.0136 µM	0.00351 µM and 0.0025 µM	> 25	0.00335 µM and 0.0025 µM	0.0367 µM and 0.00706 µM	0.0169 µM and 0.00404 µM	0.0025	
C=CCC12CCC(=O)[C@@]1(C)CC=C(O)C2=O (stereo partly drawn)	> 100	> 100	> 100	> 100	> 100 µM	> 100	> 100	> 100	> 100											
O=[N+]([O-])c1ccc(/C(Cl)=C/c2ccc(/C=C(\Cl)c3ccc([N+](=O)[O-])cc3[N+](=O)[O-])cc2)c([N+](=O)[O-])c1	> 100	> 100	> 100	> 100	> 100 µM	> 100	> 100	> 100	> 100											
C=C1C(=O)c2cc3c(cc2C(c2cc(OC)c(OC)c(OC)c2)[C@@H]1C(=O)O)OCO3 (stereo partly drawn)	> 100	61.1	> 100	> 100	> 100 µM		> 100	> 100	> 100											
N#CC(/C(=N/NC(N)=S)C(=O)Nc1cccc(Cl)c1)c1ccccc1 (stereo not drawn)	> 100	> 100	> 100	> 100	> 100 µM	> 100	> 100	> 100	> 100											
CC(=O)N(CCN1C(=O)c2ccccc2C1=O)CCN1C(=O)c2ccccc2C1=O	> 100	> 100	> 100	> 100	> 100 µM	> 100	> 100		> 100											
COC(=O)c1nc(C(=O)OC)c2c([nH]c3ccccc32)c1C(=O)OC	> 100	> 100		> 100	> 100 µM	> 100	> 100	> 100												
O=c1nc(N2CCCC2)nc(N2CCCC2)s1	> 100	> 100	> 100	> 100		> 100	> 100	> 100	> 100											
N#Cc1c2ccccc2c2nnc3ccc(C(F)(F)F)cc3n12		> 100	> 100	> 100	> 100 µM	> 100	> 100	> 100	> 100		47.6 µM	29.4 µM	26.9 µM	28 µM	> 100	39.4 µM	> 100 µM	42.7 µM	47.9	43.7
Cc1ccc(NC(=O)/C(=N\NC(N)=S)C(C#N)c2ccccc2C)cc1C (stereo not drawn)	> 100	> 100	> 100	> 100	> 100 µM	> 100	> 100	> 100	> 100											
O=C1NC(=O)C2C1C1C=C3c4ccccc4N(c4ccccc4)C32[C@H]2C(=O)NC(=O)[C@@H]12 (stereo partly drawn)	> 100	> 100	> 100	> 100	> 100 µM	> 100	> 100	> 100	> 100											
C=C1c2[nH]c3ccccc3c2CC(C(=O)O)N1C(O)c1ccc(S(=O)(=O)O)cc1 (stereo not drawn)	> 100	> 100	> 100	> 100		> 100	> 100	> 100	> 100											
COC1=CC(=O)OC(/C=C(C)/C=C/C2=C(C)CCCC2(C)C)C1 (stereo not drawn)	> 100	> 100		> 100		> 100	> 100	> 100	> 100											
N#Cc1ccc(C(C2C(=O)NC(=O)NC2=O)C2C(=O)NC(=O)NC2=O)cc1			> 100	> 100	> 100 µM	> 100	> 100	> 100	> 100											
NC(=S)N/N=C(\CCC(=O)Nc1ccccc1[N+](=O)[O-])CC(=O)c1ccco1	> 100	> 100	> 100	> 100	> 100 µM	> 100	> 100	> 100	> 100											
N#Cc1c2ccccc2c2nnc3ccccc3n12		> 100	> 100	36.7	> 100 µM	60.1	> 100	> 100	> 100		28.3 µM	> 100 µM	13.5 µM	26.8 µM	> 100	9.32 µM	24.4 µM	49 µM	> 100	34.8
CC(C)(CN1CCCCC1)C(=O)CC(SCCN)c1ccc(Cl)cc1 (stereo not drawn)	6.65	5.59	3.86	10.2	3.24 µM	12.8	12.4	11.6	5.85											
CCc1cccc(CC)c1NC(=O)CC1SC(N)=NC1=O (stereo not drawn)	> 100	> 100	> 100	> 100	> 100 µM	> 100	> 100	> 100												
O=C(Cc1ccccc1)NN1C(=O)C(Cl)C1c1cccc([N+](=O)[O-])c1 (stereo not drawn)	> 100		47.8	> 100	> 100 µM	> 100	> 100	> 100	> 63.8											

SMILES	TGI [1] [µM]	TGI [2] [µM]	TGI [3] [µM]	TGI [4] [µM]	TGI [5]	TGI [6] [µM]	TGI [7] [µM]	TGI [8] [µM]	TGI [9] [µM]	GI50 [1]	GI50 [2]	GI50 [3]	GI50 [4]	GI50 [10]	TGI [10] [µM]	GI50 [5]	GI50 [6]	GI50 [7]	GI50 [8] [µM]	GI50 [9] [µM]
Cc1ccc(NC(=O)c2nc(S(C)(=O)=O)oc2-c2ccc(F)cc2)cc1Nc1ccc2ncn(C)c(=O)c2c1	29.8	5.65		29.5		7.11	31			16.3 µM	2.13 µM		13.9 µM	1.72 µM	3.09		2.49 µM	16 µM		
CC(=O)SC(SC(C)=O)SC(C)=O	> 100	> 100		> 100	82.9 µM	> 100		> 100												
CC(=O)OCC1OC([Se-])C(OC(C)=O)C(OC(C)=O)C1OC(C)=O.N#CCC[PH+](CCC#N)CCC#N.[Au+] (stereo not drawn)		> 100	14.4	42.4	> 100 µM	68.8	35.9	48.3	55.6		21.3 µM	3.09 µM	9.09 µM			17.6 µM	25.2 µM	13.7 µM	15	16.2
CC(=O)CC(=O)NC=O	> 100	> 100	> 100	> 100	> 100 µM	> 100	> 100	> 100	> 100											
O=C(N/C=C/C=C/Sc1ccccc1)OCc1ccccc1		42.4	> 100	59.8	31.6 µM	49.2	35.4		37.2											
O=C(O)c1cn(C2CC2)c2cc(N3CCN(C(=O)Nc4nc(-c5ccc(Br)cc5)cs4)CC3)c(F)cc2c1=O		> 100	> 100	> 100		> 100	> 100	> 100			0.715 µM	0.437 µM	3.68 µM	2.05 µM	> 100		4.34 µM	3.06 µM	0.853	
O=c1[nH]c(F)nc2c1ncn2C1OC(CO)C(O)C1O (stereo not drawn)	> 100	> 100	> 100	> 100	> 100 µM	> 100	> 100	> 100		> 100 µM	> 100 µM	> 100 µM	> 100 µM	> 100 µM	> 100	> 100 µM	> 100 µM	> 100 µM	> 100	
CC1=NC=C(O)c2ccccc2O1	> 100		> 100	> 100	> 100 µM	> 100	> 100	> 100												
C#CCn1c(=O)c2cccnc2n(CC#C)c1=O		> 100	> 100	> 100	> 100 µM	> 100	> 100	> 100	> 100											
COC1=CC(=O)c2c(cc3c(c2O)-c2c(OC)cc4cc5c(c(O)c4c2OC(=O)CC(C)(O)C3)C(=O)CC(C)(O)C5)C1=O (stereo not drawn)	4.42	3.51	5.85	10.7	3.17 µM	2.76	3.48	4.04	5.87											
O=C(Cc1ccccc1)N/N=C(/c1nc2ccc([N+](=O)[O-])cc2[nH]c1=O)C(O)c1ccc(C(O)/C(=N/NC(=O)Cc2ccccc2)c2nc3ccc([N+](=O)[O-])cc3[nH]c2=O)cc1 (stereo not drawn)	> 100	> 100	> 100	> 100	> 100 µM	> 100	> 100	> 100	> 100											
O=C1Oc2cc3c(c4cccc1c24)OCN(c1ccccc1)C3	> 100	> 100	> 100	> 100	> 100 µM	> 100	> 100	> 100	> 100											
O=C(O)CCC1CCc2cccc(OCC(=O)O)c2C1=O (stereo not drawn)	> 100	> 100	> 100	> 100	> 100 µM	> 100	> 100		> 100											
COc1ccc2[nH]c3c4c(cc(-c5ccccc5)c3c2c1)C(=O)N(c1ccccc1)C4=O	> 73.8	37.2	> 100	> 100	> 100 µM	> 71.3	33.7	65	> 77.7											
CCC(C)CC(C)C(=O)c1c(O)ccn(O)c1=O (stereo not drawn)		> 100	36.8	36.3	> 100 µM	> 100	49.6	10.1			4.12 µM	0.901 µM	1.78 µM	2.1 µM	> 100	38.3 µM	1.98 µM	5.22 µM	1.44	
NC1=NC2=C(CCCC2)C(c2cccs2)S1 (stereo not drawn)	> 100	> 100	> 100	> 100	> 100 µM	> 100	> 100	> 100	> 100											
CCCCCC#COC1CC(C)CC[C@@H]1C(C)C (stereo partly drawn)		> 100	69.7	> 100	> 100 µM	> 100	> 100	> 100	> 100											
Cc1cc2c(cc1C)[n+](=O)c(C(=O)CC(=O)C(=O)Nc1ccccc1C(C)C)c(C)n2[O-]	> 100	> 100	> 100	> 100	> 100 µM	> 100	> 100	> 100	> 100											
Fc1ccc(C2SCc3nc4ccccc4n32)cc1F (stereo not drawn)	> 100	56.9	36.7	> 100	90.3 µM	> 100	> 100	> 100	> 100											
O=C(NS(=O)(=O)c1ccc(NC[C@H]2COCCO2)c([N+](=O)[O-])c1)c1ccc(N2CCN(CC3=C(c4ccc(Cl)cc4)CC4(CCC4)CC3)CC2)cc1Oc1cnc2[nH]ccc2c1	5.74	6.31		14.2	3.4 µM	3.71	4.08	3.2	5.11	2.36 µM	1.76 µM		3.08 µM	3.57 µM	70.6	1.85 µM	1.79 µM	1.66 µM	1.69	1.8

Source: PubChem BioAssay (NCI)
